This passage reports TGI results from PubChem BioAssay (NCI).

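A five-concentration, 48-hour dose response in 96-well plates underlies each endpoint, interpolated linearly between surrounding concentrations. TGI marks complete inhibition of growth.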

Test systems include DLD-1 colon; DMS 114 small cell lung; DMS 273 small cell lung; HOP-18 NSCLC; LXFL 529 NSCLC; M19-MEL melanoma; SK-MEL-28 melanoma; UACC-62 melanoma; HCC-2998 colon; KM20L2 colon; P388 leukemia; P388/ADR leukemia; SN12K1 renal; SNB-78 CNS; XF 498 CNS; RXF-631 renal.
Common to all, as to experiment: NCI tumour cell line growth inhibition, 48 h

On to `O=c1c2ccccc2nc(-c2ccccc2)n1NC(=S)Nc1ccc(Cl)cc1`, for which the TGI with DLD-1 colon, in the test with DMS 114 small cell lung, in the test with DMS 273 small cell lung, with HOP-18 NSCLC, in the test with LXFL 529 NSCLC and in the test on M19-MEL melanoma was over 100 µM each time. For the same compound, the TGI was 91.6 µM in the test on SK-MEL-28 melanoma and over 100 µM in the test with UACC-62 melanoma.
Turning to `CN(C)CCNC(=O)c1cccc2cc3cc(O)ccc3nc12`, the TGI stood at 4.88 µM in the test on DLD-1 colon; 3.13 µM in the test on DMS 114 small cell lung; 2.52 µM in the test with DMS 273 small cell lung; 8.3 µM in the test on HCC-2998 colon; 3.83 µM with HOP-18 NSCLC; 8.13 µM in the test with KM20L2 colon. Further, the TGI in the test on M19-MEL melanoma stood at 3.68 µM; in the test on P388 leukemia it was 1.25 µM; in the test with P388/ADR leukemia, 2.33 µM; with SK-MEL-28 melanoma, 4.65 µM; in the test with SN12K1 renal, 2.66 µM; in the test on SNB-78 CNS, 18.2 µM. The TGI was 2.74 µM with UACC-62 melanoma and 2.51 µM in the test on XF 498 CNS.
As to `Cc1ccc(N(O)C(C)(C)C)cc1`, the TGI in the test on DLD-1 colon, with DMS 114 small cell lung, with DMS 273 small cell lung, in the test on HCC-2998 colon, with HOP-18 NSCLC and in the test with KM20L2 colon was over 100 µM in each case. The TGI in the test on M19-MEL melanoma, in the test on P388 leukemia, with P388/ADR leukemia, with SK-MEL-28 melanoma, in the test with SN12K1 renal and in the test on UACC-62 melanoma was over 100 µM throughout. In the test with XF 498 CNS, the TGI is over 100 µM.
For `Cc1cc(C)nc(/C(=N\NC(N)=O)C(=O)Nc2nc3ccc(C)cc3s2)c1`, the TGI in the test on DLD-1 colon was over 100 µM; in the test with DMS 114 small cell lung it was over 81.9 µM; in the test on DMS 273 small cell lung, over 93.5 µM; with HCC-2998 colon, over 100 µM; with HOP-18 NSCLC it was over 100 µM; with KM20L2 colon it was over 100 µM. The TGI in the test on LXFL 529 NSCLC, in the test with M19-MEL melanoma, in the test with SK-MEL-28 melanoma, in the test with SNB-78 CNS, in the test with UACC-62 melanoma and in the test on XF 498 CNS was over 100 µM in each case.
Take `C[S+](C)CC1OC(n2cnc3c(N)ncnc32)C(O)C1O` (stereo not drawn): the TGI in the test on DLD-1 colon, in the test with DMS 114 small cell lung, in the test with DMS 273 small cell lung, with HCC-2998 colon, in the test with KM20L2 colon and in the test on M19-MEL melanoma was over 225 µM throughout. Moreover, the TGI with P388 leukemia is over 225 µM; in the test on P388/ADR leukemia, over 22.5 µM; with SK-MEL-28 melanoma, over 225 µM; in the test with SN12K1 renal, over 225 µM; in the test on SNB-78 CNS it was over 225 µM; in the test on UACC-62 melanoma it was over 200 µM. Moreover, the TGI with XF 498 CNS was over 225 µM.
In the case of `CC1(C)C2CCC3(OCCO3)C1C(O)C2` (stereo not drawn), the TGI in the test on DLD-1 colon, in the test with DMS 273 small cell lung, with HCC-2998 colon, in the test on HOP-18 NSCLC, in the test with KM20L2 colon and with LXFL 529 NSCLC was over 100 µM in each case. The TGI in the test on M19-MEL melanoma, in the test with RXF-631 renal, in the test on SK-MEL-28 melanoma, in the test on SNB-78 CNS, with UACC-62 melanoma and in the test with XF 498 CNS was over 100 µM in each case.
With `O=NN(CCF)C(=O)NC1CC2CCC1C2` (stereo not drawn), the TGI with DLD-1 colon, in the test with DMS 114 small cell lung, with DMS 273 small cell lung, with HCC-2998 colon, in the test on HOP-18 NSCLC and in the test on KM20L2 colon was over 100 µM in each case. The TGI was over 100 µM in the test on M19-MEL melanoma; 50.3 µM in the test on P388 leukemia; over 100 µM in the test on P388/ADR leukemia; over 100 µM with SK-MEL-28 melanoma; over 100 µM with SN12K1 renal; over 100 µM in the test with SNB-78 CNS. Also, the TGI in the test on UACC-62 melanoma is over 100 µM.
With `CCC(COC(=O)CC[C@@H](NC(=O)C(C)NC(=O)C(C)OC1C(O)C(CO)OC(OCc2ccccc2)C1NC(C)=O)C(N)=O)NC1c2ccccc2Nc2cccc([N+](=O)[O-])c21` (stereo partly drawn), the TGI in the test on DLD-1 colon, in the test on DMS 114 small cell lung, in the test with DMS 273 small cell lung, in the test with HCC-2998 colon, with HOP-18 NSCLC and in the test with KM20L2 colon was over 100 µM in each case. The TGI in the test with LXFL 529 NSCLC, in the test on M19-MEL melanoma, with SK-MEL-28 melanoma, in the test with SNB-78 CNS, with UACC-62 melanoma and in the test with XF 498 CNS was over 100 µM each time.
Regarding `COc1ccc2c(c1)OCCc1cn[nH]c1-2`, the TGI in the test on DLD-1 colon, with DMS 114 small cell lung, in the test on DMS 273 small cell lung, with HCC-2998 colon, in the test with HOP-18 NSCLC and with KM20L2 colon was over 100 µM throughout. Besides, the TGI with M19-MEL melanoma, in the test with P388 leukemia, in the test on P388/ADR leukemia, in the test with SK-MEL-28 melanoma, in the test with SN12K1 renal and in the test with SNB-78 CNS was over 100 µM each time. Also, the TGI with UACC-62 melanoma is 84.3 µM; in the test on XF 498 CNS, 73.6 µM.
In the case of `COc1cccc(/C(Cl)=C(\C=O)c2cccc(OC)c2)c1`, the TGI in the test with DLD-1 colon was 29.1 µM; in the test on DMS 114 small cell lung it was 16.4 µM; in the test on DMS 273 small cell lung it was 28.5 µM; in the test with HCC-2998 colon, 30.5 µM; in the test with HOP-18 NSCLC it was 41.9 µM; in the test with KM20L2 colon, 47.8 µM. The TGI in the test on LXFL 529 NSCLC was determined as 20.9 µM; in the test on M19-MEL melanoma it was 29 µM; in the test with SK-MEL-28 melanoma, 25.5 µM; in the test with SNB-78 CNS, 30 µM; in the test on UACC-62 melanoma, 18.8 µM; in the test on XF 498 CNS, 27.1 µM.
